Results taken from US6545032B1, “Synthesis of [3,5,7]-H-imidazo[1,5-a] imidazol-2(3H)-one compounds” (Torrey Pines Institute for Molecular Studies, priority 1999, dated 2003).

Key:
[1] = molecular target: T1, mu opiate receptor (Rattus norvegicus, UniProt P33535); assay: Inhibition of [3H]DAMGO binding to the mu opiate receptor in rat brain homogenates; design: Mean: unit not given beside the values; conditions: 0.08 mg of compound per milliliter, 7 nM 3H-labeled DAMGO, rat brain membranes; for % Bound: [3H]DAMGO bound; for Mean: mean bound radioactivity of [3H]DAMGO; for Minus NSB*: mean minus non-specific binding; for % Inhibition: percent inhibition of DAMGO binding
T1 construct: from tissue; host or cells: rat brain membranes/homogenate
Experimental: The previously prepared [3,5,7]-1H-imidazo[1,5-a]-imidazol-2(3H)-one library of individual compounds was screened for the ability to inhibit the binding of [^3H] [D-Ala^2,MePhe^4,Gly^5-ol]enkephalin (DAMGO) that is known to bind specifically to the mu opiate receptor present in rat brain homogenates following literature procedures. [Dooley et al., Science, 266:2019(1994); U.S. Pat. No. 5,763,193.]
Preparation of rat brain membranes and the receptor binding assay were carried out as described in Dooley et al., Life Sci., 52:1509(1993). Each tube in the screening assay contained 0.08 mg of compound mixture per milliliter, 0.5 mL of membrane suspension (0.1 mg of protein), 7 nM ^3H-labeled DAMGO [specific activity 36 Ci/mmol, obtained from the National Institute on Drug Abuse (NIDA) repository through Chiron Mimotopes PeptideSystems (San Diego, Calif.) and […] of peptide mixture in 50 mM Tris-HCl buffer (pH 7.4). The final volume was 0.65 mL. The results of these screenings are shown in the table, below, wherein the “R” groups are as discussed for Example 1. The results are reported as percent inhibition of DAMGO binding.

[2] = molecular target: T2, kappa opiate receptor (Cavia porcellus, UniProt P41144); assay: Inhibition of tritiated U69,593 binding to the kappa opiate receptor in guinea pig brain homogenates; design: Mean: unit not given beside the values; conditions: 3 nm tritiated U69,593, guinea pig brain membranes; for % Bound: [3H]U69,593 bound; for % Inhibition: inhibition of [3H]U69,593 binding; for Mean: mean bound radioactivity of [3H]U69,593, 2.5 hours 25° C.; for Minus NSB: mean minus non-specific binding
T2 construct: guinea pig cortices and cerebella were homogenized in 40 mL of Buffer A; from tissue; host or cells: guinea pig cortices and cerebella, crude membrane suspension
Experimental: The above-prepared library of individual compounds was screened for the ability to inhibit the binding of tritiated Compound U69,593 that is known to bind specifically to the kappa opiate receptor present in guinea pig brain homogenates following literature procedures. [Dooley et al., J. Biol. Chem., 273(30) 18848-18856 (1998)]
Briefly, guinea pig cortices and cerebella were homogenized in 40 mL of Buffer A [50 mM Tris-HCl, pH 7.4] at 4° C. Homogenates were centrifuged [Beckman® J2-HC, 35, 300×g] for 10 minutes. The pellets were resuspended in fresh buffer and incubated at 37° C. for 40 minutes. Following incubation, the suspensions were centrifuged as before, the resulting pellets resuspended in 100 volumes of Tris buffer, and the suspensions combined. Membrane suspensions were prepared and used on the same day. Protein content of the crude homogenates was determined by the method of Bradford, Anal. Biochem., 72:248-252 (1976).
Each assay tube contained 0.5 mL of membrane suspension, 3 nm of tritiated Compound U69,593 [(5a,7a,8b)-(−)-N-methyl-N-(7-(1-pyrrolidinyl)-1-oxaspiro(4,5)dec-8-yl)-benzeneacetamide; Lahti et al., European J. Pharmacol., 109:281-284(199-85)] in a total volume of 0.65 mL. Assay tubes were incubated for 2.5 hours a 25° C. The assay was then filtered through GF-B filters on a Tomec™ harvester (Orange, Conn.). The filters were subsequently washed with 6 mL of 50 mM Tris-HC1, pH 7.4 at 4° C. Bound radioactivity was counted on a Wallace™ Beta-plate Liquid Scintillation Counter (Piscataway, N.J.). Unlabeled U50, 488 [(trans-(dl)-3,4-dichloro-N-methyl-N-[2-(1-pyrrolidinyl)cyclohexyl]-benzeneacetamide) methane sulfonate hydrate; Lahti et al., Life Sci., 31:2257-xx(1982) and Von Voightlander et al., J. Pharmacol. Exp. Ther., 224:7 (1983)] was used as a competitive inhibitor to generate a standard curve and determine nonspecific binding. The results of these assays are shown in the table, below, wherein the “R” groups are as discussed for Example 1.

T1 sequence (P33535 whole entry): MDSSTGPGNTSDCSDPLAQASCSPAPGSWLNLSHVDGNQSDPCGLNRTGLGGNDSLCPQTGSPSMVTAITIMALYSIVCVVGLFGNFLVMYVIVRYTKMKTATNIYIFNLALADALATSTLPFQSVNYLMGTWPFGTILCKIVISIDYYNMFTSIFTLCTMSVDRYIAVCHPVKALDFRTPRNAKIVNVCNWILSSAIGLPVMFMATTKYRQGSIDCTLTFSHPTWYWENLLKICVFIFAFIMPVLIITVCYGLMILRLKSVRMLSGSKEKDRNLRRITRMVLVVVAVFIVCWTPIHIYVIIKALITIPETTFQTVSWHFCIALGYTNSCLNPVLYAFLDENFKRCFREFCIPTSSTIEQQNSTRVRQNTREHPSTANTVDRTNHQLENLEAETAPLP
T2 sequence (P41144 whole entry): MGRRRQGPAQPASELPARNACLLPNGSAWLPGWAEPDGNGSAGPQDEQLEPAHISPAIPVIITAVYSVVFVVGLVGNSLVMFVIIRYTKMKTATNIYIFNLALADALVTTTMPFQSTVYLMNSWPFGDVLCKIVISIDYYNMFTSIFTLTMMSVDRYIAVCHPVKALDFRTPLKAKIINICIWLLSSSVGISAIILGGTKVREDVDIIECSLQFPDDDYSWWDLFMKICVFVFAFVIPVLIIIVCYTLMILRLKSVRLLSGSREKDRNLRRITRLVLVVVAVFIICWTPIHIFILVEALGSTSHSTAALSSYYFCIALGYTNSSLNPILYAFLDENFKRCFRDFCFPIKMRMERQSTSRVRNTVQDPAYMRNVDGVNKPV

## CCC(c1ccccc1)c1nc(C(C)C)c2n1C(C(C)C)C(=O)N2 (mixture of isomers) [Pool 68]
[1]
  % Bound: 66%
  Mean: 935.45
  Minus NSB*: 627.45
  % Inhibition: 34%
[2]
  % Bound: 106.786%
  % Inhibition: −6.786%
  Mean: 2013.3
  Minus NSB: 1106.30

## CC(C)c1nc(CC(C)c2ccccc2)n2c1NC(=O)C2C(C)C (mixture of isomers) [Pool 69]
[1]
  % Bound: 62%
  Mean: 900.1
  Minus NSB*: 592.10
  % Inhibition: 38%
[2]
  % Bound: 67.157%
  % Inhibition: 32.843%
  Mean: 1602.75
  Minus NSB: 695.75

## CCC(C)c1nc(C(C)C)c2n1C(C(C)C)C(=O)N2 (mixture of isomers) [Pool 124]
[1]
  % Bound: 62%
  Mean: 901.85
  Minus NSB*: 593.85
  % Inhibition: 38%
[2]
  % Bound: 62.630%
  % Inhibition: 37.370%
  Mean: 1555.85
  Minus NSB: 648.85

## CCCCC(CC)c1nc(C(C)C)c2n1C(C(C)C)C(=O)N2 (mixture of isomers) [Pool 128]
[1]
  % Bound: 60%
  Mean: 881.35
  Minus NSB*: 573.35
  % Inhibition: 40%
[2]
  % Bound: 57.563%
  % Inhibition: 42.437%
  Mean: 1503.35
  Minus NSB: 596.35

## CSCCc1nc(C)n2c1NC(=O)C2C(C)C (racemic) [Pool 59]
[1]
  % Bound: 59%
  Mean: 874.75
  Minus NSB*: 566.75
  % Inhibition: 41%
[2]
  % Bound: 78.953%
  % Inhibition: 21.047%
  Mean: 1724.95
  Minus NSB: 817.95

## CCCCc1nc(C)n2c1NC(=O)C2C(C)C (racemic) [Pool 60]
[1]
  % Bound: 62%
  Mean: 902.8
  Minus NSB*: 594.80
  % Inhibition: 38%
[2]
  % Bound: 81.892%
  % Inhibition: 18.108%
  Mean: 1755.4
  Minus NSB: 848.40

## CCCc1nc(C)n2c1NC(=O)C2C(C)C (racemic) [Pool 61]
[1]
  % Bound: 39%
  Mean: 677.65
  Minus NSB*: 369.65
  % Inhibition: 61%
[2]
  % Bound: 50.845%
  % Inhibition: 49.155%
  Mean: 1433.75
  Minus NSB: 526.75

## Cc1nc(CC2CCCCC2)c2n1C(C(C)C)C(=O)N2 (racemic) [Pool 62]
[1]
  % Bound: 52%
  Mean: 805
  Minus NSB*: 497.00
  % Inhibition: 48%
[2]
  % Bound: 83.909%
  % Inhibition: 16.091%
  Mean: 1776.3
  Minus NSB: 869.30

## Cc1nc(Cc2ccccc2)c2n1C(C(C)C)C(=O)N2 (racemic) [Pool 63]
[1]
  % Bound: 57%
  Mean: 854.35
  Minus NSB*: 546.35
  % Inhibition: 43%
[2]
  % Bound: 84.913%
  % Inhibition: 15.087%
  Mean: 1786.7
  Minus NSB: 879.70

## Cc1nc(Cc2ccc(O)cc2)c2n1C(C(C)C)C(=O)N2 (racemic) [Pool 64]
[1]
  % Bound: 42%
  Mean: 710.9
  Minus NSB*: 402.90
  % Inhibition: 58%
[2]
  % Bound: 61.631%
  % Inhibition: 38.369%
  Mean: 1545.5
  Minus NSB: 638.50

## CC(C)c1nc(C2(c3ccccc3)CC2)n2c1NC(=O)C2C(C)C (racemic) [Pool 67]
[1]
  % Bound: 55%
  Mean: 830
  Minus NSB*: 522.00
  % Inhibition: 45%
[2]
  % Bound: 84.662%
  % Inhibition: 15.338%
  Mean: 1784.1
  Minus NSB: 877.10

## Cc1cccc(Cc2nc(C(C)C)c3n2C(C(C)C)C(=O)N3)c1 (racemic) [Pool 70]
[1]
  % Bound: 68%
  Mean: 954.15
  Minus NSB*: 646.15
  % Inhibition: 32%
[2]
  % Bound: 107.389%
  % Inhibition: −7.389%
  Mean: 2019.55
  Minus NSB: 1112.55

## CC(C)c1nc(Cc2cccc(F)c2)n2c1NC(=O)C2C(C)C (racemic) [Pool 71]
[1]
  % Bound: 57%
  Mean: 853.7
  Minus NSB*: 545.70
  % Inhibition: 43%
[2]
  % Bound: 61.245%
  % Inhibition: 38.755%
  Mean: 1541.5
  Minus NSB: 634.50

## CC(C)c1nc(Cc2cccc(Br)c2)n2c1NC(=O)C2C(C)C (racemic) [Pool 72]
[1]
  % Bound: 27%
  Mean: 563
  Minus NSB*: 255.00
  % Inhibition: 73%
[2]
  % Bound: 65.748%
  % Inhibition: 34.252%
  Mean: 1588.15
  Minus NSB: 681.15

## CC(C)c1nc(Cc2cccc(C(F)(F)F)c2)n2c1NC(=O)C2C(C)C (racemic) [Pool 73]
[1]
  % Bound: 69%
  Mean: 967.25
  Minus NSB*: 659.25
  % Inhibition: 31%
[2]
  % Bound: 78.205%
  % Inhibition: 21.795%
  Mean: 1717.2
  Minus NSB: 810.20

## Cc1ccc(Cc2nc(C(C)C)c3n2C(C(C)C)C(=O)N3)cc1 (racemic) [Pool 74]
[1]
  % Bound: 58%
  Mean: 858.65
  Minus NSB*: 550.65
  % Inhibition: 42%
[2]
  % Bound: 48.287%
  % Inhibition: 51.713%
  Mean: 1407.25
  Minus NSB: 500.25

## CC(C)c1nc(Cc2ccc(F)cc2)n2c1NC(=O)C2C(C)C (racemic) [Pool 75]
[1]
  % Bound: 47%
  Mean: 758.2
  Minus NSB*: 450.20
  % Inhibition: 53%
[2]
  % Bound: 71.134%
  % Inhibition: 28.866%
  Mean: 1643.95
  Minus NSB: 736.95

## COc1cccc(Cc2nc(C(C)C)c3n2C(C(C)C)C(=O)N3)c1 (racemic) [Pool 76]
[1]
  % Bound: 57%
  Mean: 854
  Minus NSB*: 546.00
  % Inhibition: 43%
[2]
  % Bound: 91.902%
  % Inhibition: 8.098%
  Mean: 1859.1
  Minus NSB: 952.10

## CC(C)c1nc(Cc2ccc(Br)cc2)n2c1NC(=O)C2C(C)C (racemic) [Pool 77]
[1]
  % Bound: 39%
  Mean: 682.95
  Minus NSB*: 374.95
  % Inhibition: 61%
[2]
  % Bound: 73.658%
  % Inhibition: 26.342%
  Mean: 1670.1
  Minus NSB: 763.10

## COc1ccc(Cc2nc(C(C)C)c3n2C(C(C)C)C(=O)N3)cc1 (racemic) [Pool 78]
[1]
  % Bound: 49%
  Mean: 775.2
  Minus NSB*: 467.20
  % Inhibition: 51%
[2]
  % Bound: 87.360%
  % Inhibition: 12.640%
  Mean: 1812.05
  Minus NSB: 905.05

## Cc1nc(CO)c2n1C(C(C)C)C(=O)N2 (centres unmarked) [Pool 39]
[2]
  % Bound: 78.827%
  % Inhibition: 21.173%
  Mean: 1723.65
  Minus NSB: 816.65
